Experimental findings from US4063022A, “Antisecretory 2-imidazolidinones” (Morton-Norwich Products, Inc., priority 1976, dated 1977) are described below.

This experiment relates to gastric acid secretion. In words: modified standard pylorus-ligated secretory testing procedure in the rat. The format is in vivo, Sprague-Dawley rats. The following applies: 300 mg/kg p.o. 1 hr prior to pylorus ligation, 4 hrs after ligation; for % of Control Vol. of Gastric Secretion: control 0.5% Methocel; for % of Control Gastric Acid Output: titration to pH 7, control 0.5% Methocel. The procedure:
Such effect is evidenced using a modified standard pyloruslighted secretory testing procedure in the rat. Sprague-Dawley rats, weighing […] and previously fasted for 24 hrs, were used. All compounds were given perorally as suspensions in 0.5% Methocel 1 hr prior to pylorus ligation. Under light ether anesthesia, the rat stomach was ligated at the pylorus region. Four hrs after ligation the conscious rat was sacrificed by a chloroform overdose. The stomach was carefully excised and its content drained into a centrifuge tube. Samples were centrifuged to separate secretions from debris. Gastric fluid volume reading and determination of sample contamination, based on debris and sample color, was made. Titration was performed on a sample aliquot of 1 ml diluted to a volume of 5 ml using distilled water. The titrant used was 0.1N NaOH. Total gastric acid output in the stomach was determined by titration to ph 7. A dose of 300 mg/kg p.o. of a compound was administered to a group of rats and its effect on the volume of gastric secretion and acid output compared to a control group receiving 0.5% Methocel p.o. The activity of each compound based on the degree of inhibition of gastric acid output is set forth in Table I.

Take `O=C1NCCN1Cc1ccc(Cl)c(C(F)(F)F)c1` [Example 11-C, 1-(4-Chloro-3-trifluoromethylbenzyl)-2-imidazolidinone]: the “% of Control Vol. of Gastric Secretion” value is on record as 23.0 % of Control and the “% of Control Gastric Acid Output” value is 16.8 % of Control.

For `CN1CCN(Cc2ccc(Cl)c(Cl)c2)C1=O` [I-B, 1-(3,4-Dichlorobenzyl)-3-methyl-2-imidazolidinone], the “% of Control Vol. of Gastric Secretion” value is recorded as 39.2 % of Control and the “% of Control Gastric Acid Output” value is 8.9 % of Control.
